Data from patent publication US10597398B2, “Suppression and regeneration promoting effect of low molecular weight compound on cancer and fibrosis” (NATIONAL UNIVERSITY CORPORATION TOTTORI UNIVERSITY, priority 2015, dated 2020).

How the values were obtained:
[1] = tested on: DLD-1 cells (colon cancer cells); test: Growth of colon cancer cells (Cell Counting Kit-8); assay type: cell-based; details: 10 or 50 μM, 48 h
Procedure: DLD-1 cells (colon cancer cells) were cultured on 10-cm cell culture dishes (TPP Techno Plastic Products AG, Trasadingen, Switzerland) by using DMEM under conditions at 5% CO2, 37° C., and 100% humidity. For passage, 70 to 90% confluent cells were washed with PBS(−), and 300 μL of 0.25% Trypsin/1 mM EDTA per 2 mL of PBS(−) was added thereto. The cells were incubated at 37° C. for 5 min and were then detached. After that, 5 mL of DMEM was used to collect the cells. The cells collected were centrifuged at 1000 rpm for 3 min to remove a supernatant. The cells were then suspended in DMEM and were split at a 1:4 ratio.
DLD-1 cells were seeded at 5×10^5 cells/well of a 96-well plate (TPP). After 24 h, the cells were treated with 0, 10, or 50 μM of IC-2. Next, 48 h after the treatment, 100 μL of 10% Cell Counting Kit-8 (DOJINDO LABORATORIES, Kumamoto) was added. The mixture was incubated at 37° C. and its absorbance (at a measurement wavelength of 450 nm/control wavelength of 600 nm) was measured by using a Sunrise Rainbow RC (Tecan Group Ltd., Mannedorf, Switzerland).

liver fibrosis = test: Carbon tetrachloride-induced fibrosis model mouse (Sirius Red staining); assay type: in vivo, C57BL/6 male mice; details: carbon tetrachloride 8 weeks, drug for last 4 weeks, IC-2 10.6 mg/kg i.p. 3 times a week, vs vehicle group
Procedure: To induce anesthesia, 1-mL disposable syringe with a 27-G needle was used to intraperitoneally inject, into a mouse, 1 μL/g body weight of a systemic anesthetic somnopentyl (Kyoritsuseiyaku Corporation, Tokyo).
The liver tissue sample, as so resected, was fixed in 4% paraformaldehyde (Nacalai tesque, Kyoto) at room temperature for 16 h, embedded in paraffin, and sectioned with a microtome to prepare tissue sections, which were then stained by using a Picosirius Red Stain Kit (Polysciences Inc., Warrington, Pa.) in accordance with the attached protocol. After that, a BZ-9000 (KEYENCE CORPORATION, Osaka) was used to take 10 photographs of light-field enlarged images (100×) per tissue sample. The ratio of the red-stained fiber area to the total tissue area of each photographed image was quantified to calculate a fibrosis-positive area ratio.
Seven-week-old C57BL/6 male mice (Japan SLC, Inc., Shizuoka) were subjected to 1-week preparatory rearing and healthy ones were then used. The mice were housed in animal cages at a room temperature of 22±1° C. and a humidity of 50±5% throughout the preparatory rearing and experimental period and were given ad libitum access to food and water.
A microsyringe (ITO CORPORATION, Shizuoka) was used to intraperitoneally administer 0.2 ml/kg of carbon tetrachloride (CCl4; Wako Pure Chemical Industries, Ltd.) 3 times a week for 4, 6, or 8 weeks. […]

[2] = tested on: cancer stem cells (CD44) in HuH-7 cells; test: Inhibitory effect on cancer stem cells (FCM analysis of CD44), Example 6.4; assay type: cell-based, human; details: CD44, day 2, IC-2 50 μM, 5-FU 0.5 μM, compared with control 1% DMSO
Procedure: CD44, a cancer stem cell marker, was used as an indicator to examine an inhibitory effect of IC-2 on cancer stem cells. First, 70 to 90% confluent HuH-7 cells were harvested and seeded at 1.5×10^6 cells per 10-cm cell culture dish. After 15 h, the cells were treated with hexachlorophene (15 μM), ICG-001 (15 μM), PKF118-310 (5 μM), IC-2 (50 μM), or 5-FU (0.5 μM), and the mixture was cultured at 37° C. Each control sample used was 1% DMSO, a solvent for each compound or the anti-cancer drug. Day 2 after the drug treatment, the cells were harvested from each culture dish. The cells were centrifuged at 1000 rpm and at 4° C. for 5 min to remove a supernatant and were then washed twice with 1 mL of 0.5% FBS/2 mM EDTA/PBS. Next, the cells were suspended in 500 μL of 5% BSA/0.5% FBS/2 mM EDTA/PBS for blocking at 4° C. for 15 min.
Then, 5 μL of a mouse anti-human CD44 monoclonal antibody (156-3C11, Cell Signaling Technology Inc., Danvers, Mass.) was added to 500 μL of the cell suspension. The mixture was resuspended and subjected to a primary antibody reaction in a dark room at 4° C. for 10 min. After that, the cells were washed 3 times with 1 mL of PBS. Subsequently, 1.0 μg of Alexa Fluor 488-labeled IgG (H+L) (Life Technologies Corp., Carlsbad, Calif.) was added and the mixture was suspended. Then, a secondary antibody reaction was carried out in a dark room at 4° C. for 10 min. […]

## O=C1C(Cc2ccccc2)N2C(=O)CCN(C(=O)NCc3ccccc3)C2CN1Cc1cccc2ccccc12 (stereo not drawn) [IC-2]
[1]
  growth inhibitory effect on colon cancer cells: elicited a growth inhibitory effect
Liver fibrosis
  fibrosis area (Sirius Red staining): decrease more than that of the vehicle group
[2]
  number of cancer stem cells: significant reduction in the number of cancer stem cells
